Results published in patent publication US20040170705A1, “Compositions and methods for non-insulin glucose uptake” (priority 2001, published 2004).
Entries after “also recorded” stand apart in the source; their conditions may differ.

Columns and labels:
[1] = tested on: skeletal muscle cells; conditions: cited from earlier work
[2] = tested on: L6 muscle cells; experiment: glucose uptake in L6 muscle cells (2-NBDG fluorescence); type: cell-based
Description: The permeate portion of GMM was tested for glucose uptake in L6 muscle cells. L6 cells were grown as monolayers in Dulbecco's modified Eagle's medium (DMEM) containing 1 mM glutamine, 1 mM pyruvate and 25 mM glucose. The medium was supplemented with 5% fetal calf serum (FCS). Experiments were undertaken in 48-well plates seeded from pre-confluent flasks with 50 000 cells per well. The cells were grown to confluence and the medium was changed to DMEM containing 0.5% FCS and 2.5 mM glucose (L6 Myo Medium) for at least 76 hrs to induce differentiation of L6 cells and formation of L6 myotubes. Myotubes were then incubated with test substances for 30 minutes—Protocol SMM, or in Dulbecco's PBS supplemented with 20 mM Hepes and 2 mM glucose without serum—Serum-free Medium (SFM) Protocol as described by Fryer et al. ((Activation of glucose transport by AMP-activated protein kinase via stimulation of Nitric oxide synthase, Diabetes, 49(12), 1978-85, 2000, Fryer LGD, et al).
Next, 30 uM of 2-NBDG was added for 2 minutes at 22C. Subsequently, cell culture medium was removed and cells were washed twice with cold DPBS. Then, cells were lysed in 0.5% SDS. Fluorescence was measured at 466/542 nm (excitation/emission) using 100 ul of cell lysate in 2 ml of water.
Cells were cultured, and treated in L6 Myo Medium (SSM)—SSM Protocol or in serum-free medium (SFM-DPBS containing 20 mM Hepes, 2 mM glucose)—SFM Protoci as described by Fryer et al. Glucose uptake was measured by adding 30 uM of 2-NBDG for 2′ at 22C. Experiments were performed in duplicates.
L-NMMA has been used in the experiment to verify whether GMM-induced glucose transport in L6 cells is or is not inhibited by NOS inhibitors, thus mimicking AICAR—induced mechanism of increased glucose transport. Fryer's experimental set up was adopted, consisting of pre-treatment of cells with inhibitor for 30 minutes in DPBS and after that with agonists like AICAR or in our case GMM for next 30 minutes at 37C before performing glucose uptake.

NC(=O)c1ncn([C@@H]2O[C@H](COP(=O)(O)O)[C@@H](O)[C@H]2O)c1N [AICAR, 5′-aminoimidazole 4-carboxamide 1-ribonucleotide]
effect on glucose uptake by pharmacological activation of AMPK ([1]; skeletal muscle): increase in glucose uptake

NC(=O)c1[nH]cnc1N [AICA]
effect on glucose uptake ([2]; L6 cells, 30 minutes treatment, uptake 2 minutes at 22C): stimulation

CC(=O)O.CNC(=N)NCCC[C@H](N)C(=O)O [L-NMMA, NG-methyl-L-arginine, acetate salt]
effect on permeate/GMM-induced glucose uptake ([2]; L-NMMA 300 uM pre-treatment 30 minutes in DPBS, acetate salt): inhibits; also recorded: blocks
effect on AICA-stimulated glucose uptake ([2]; pre-treatment with L-NMMA 30 minutes in DPBS, then AICA 30 minutes): inhibition
effect on the increase of glucose transport after activation of AMPK ([1]; NOS inhibitors, skeletal muscle cells): completely blocks

insulin: insulin used to treat L6 cells
glucose uptake increase ([2]; culture medium supplemented with 0.5% FCS (SSM), by average): 100-120%
glucose uptake increase ([2]; serum-free medium (DPBS)): 40-50%
